Literature values in patent US20040023937A1, “Anti-cancer formulation” (Greystone Medical Group, Inc., priority 2002, published 2004).

What was measured:
human fibrosarcoma cells = details: reported
MMP-9 = details: gelatin degrading matrix metalloproteinase; mechanism reported to be thought to involve it
MMP-2 = details: second of two gelatin degrading MMP's; reported

C[C@H]1[C@H](C)CC[C@]2(C(=O)O)CC[C@]3(C)C(=CC[C@@H]4[C@@]5(C)CC[C@H](O)C(C)(C)[C@@H]5CC[C@]43C)[C@H]12 [Ursolic acid]
anti-invasive activity (human fibrosarcoma cells): anti-invasive activity | down-regulation of MMP-9 (MMP-9): down-regulation | effect on MMP-2 (MMP-2): no effect
